Measurements taken from patent US12162864B2, “Condensed-cyclic compound” (Takeda Pharmaceutical Company Limited, priority 2018, dated 2024).

Columns and labels:
Rat PK test = format: in vivo; conditions: plasma, male SD rats, cassette dosing; for clearance / MRT: intravenous 0.1 mg/kg; for clearance: read-out: CL total (total clearance) (converted); for MRT: read-out: MRT iv (mean residence time); for Tmax: oral 1 mg/kg, read-out: Tmax (time to reach maximum plasma concentration)
Experimental: As the rat, 8-week-old male SD rats (Japan SLC, Inc.) were used. They were fed on a solid commercially available diet (CE-2, CLEA Japan, Inc.) and allowed to freely ingest tap water as the drinking water. An intravenous administration solution for the rats was prepared by weighing a test compound, dissolving same in dimethylacetamide (DMA) (Wako Pure Chemical Industries, Ltd.), adding the same volume of 1,3-butanediol (Wako Pure Chemical Industries, Ltd.) and mixing by stirring to give a DMA:1,3-butanediol (1:1, v/v) solution. An oral administration solution was prepared by weighing a test compound, pulverizing same in an agate mortar, and gradually adding 0.5 w/v % aqueous methylcellulose solution to give a suspension. For intravenous administration, the solution was administered into femoral vein of the rats at 0.1 mg/0.5 mL/kg (salt converted to free form). For oral administration, the suspension was administered to the rats at 1 mg/5 mL/kg (salt converted to free form). The cassette dosing method was used for the both administration routes, and the test compound was administered in the following manner. • Compound of Example 5 (intravenous: 9 compounds cassette administration, oral: 4 compounds cassette administration) • Compound of Example 6 (intravenous: 5 compounds cassette administration, oral: 3 compounds cassette administration) • Compound of Example 13 (intravenous: 10 compounds cassette administration, oral: 5 compounds cassette administration) • Compound of Example 14 (intravenous: 7 compounds cassette administration, oral: 3 compounds cassette administration) • Compound of Example 31 (intravenous: 9 compounds cassette administration, oral: 5 compounds cassette administration) • Compound of Example 60 (intravenous: 7 compounds cassette administration, oral: 2 compounds cassette administration)
In the case of intravenous administration, blood samples were collected from the tail vein at 5, 10, 15, 30 min, 1, 2, 4, 8 hr after administration, an anticoagulation treatment with heparin sodium (Shimizu Pharmaceutical Co., Ltd.) was performed, and plasma was collected after centrifugation and subjected to the measurement of drug concentration. In the case of oral administration, blood samples were collected from the tail vein at 15, 30 min, 1, 2, 4, 8 hr after administration, an anticoagulation treatment with heparin sodium was performed, and plasma was collected after centrifugation and subjected to the measurement of drug concentration.
All drug concentrations were measured by LC-MS/MS analysis. For a pharmacokinetics test, the plasma (50 μL) was placed in a tube, acetonitrile (150 μL) containing internal standard solution was added and they were mixed on a vortex mixer. Thereafter, the mixture was centrifuged (5000 rpm, 5 min, 4° C.). The supernatant (60 μL) after centrifugation was added to 10 mmol/L ammonium formate (160 μL) added earlier and mixed therewith. This sample was injected to LC/MS/MS. The HPLC system used was Shimadzu™ LC-20A (Shimadzu Corporation), the column used was Unison UK-C18 HT (3.0 μm, 2.0×20 mm, Imtakt) at 50° C., and 10 mmol/L ammonium formate, 0.2% formic acid as mobile phase A and acetonitrile, 0.2% formic acid as mobile phase B were fed each at a flow rate of 1.2 mL/min under gradient conditions of (B concentration: 0 min→0.1 min, 5%, 0.1→0.75 min, 5-99%, 0.75→1.15 min, 99%, 1.15→1.16 min, 5%, 1.16→1.5 min, 5%). MS/MS used was AB Sciex™ TQ5500-MPX (Applied Biosystems™).
The results are shown in Table 4. • Tmax: time to reach maximum plasma concentration • MRT: mean residence time • iv: intravenous administration • CL total: total clearance

Male beagle dogs = assay: Experiment on gastrointestinal motility in dogs; format: in vivo, dog; conditions: 4 or 8 hr after administration, compared with solvent administration group
Experimental: Experiment on Gastrointestinal Motility in Dogs
Male beagle dogs each equipped with four pressure transducers (one in the ileum and three in the large intestine) were used after an acclimation period for 15 days. The compound of Example 13 (0.03 mg/kg) or the compound of Example 60 (1 mg/kg) was suspended in 0.5% methylcellulose solution and orally administered at a volume of 10 mL/kg. Only 0.5% methylcellulose was administered to a solvent administration group.
HAPC (abbreviation for high amplitude propagated contractions which mean strong contractions propagated from the oral side to the anal side of the large intestine during defecation. Intestinal contraction pattern observed during normal defecation.) at 4 or 8 hr after administration was counted using a telemeter for gastrointestinal motility (GTS-850, STARMEDICAL).

Cn1cnc(-c2ccc(Cc3cc(C(=O)N[C@H]4CCOC[C@@H]4O)c(F)c4c3OCC4)cc2)c1 [Example 5, 1,5-anhydro-2,3-dideoxy-3-(((4-fluoro-7-(4-(1-methyl-1H-imidazol-4-yl)benzyl)-2,3-dihydro-1-benzofuran-5-yl)carbonyl)amino)-L-threo-pentitol]
clearance (Rat PK test): 11.1 mL/min/kg
MRT (Rat PK test): 36 min
Tmax (Rat PK test): 30 min

Cn1cc(-c2ccc(Cc3cc(C(=O)N[C@H]4CCOC[C@@H]4O)c(F)c4c3OCC4)cn2)cn1 [Example 6, 1,5-anhydro-2,3-dideoxy-3-(((4-fluoro-7-((6-(1-methyl-1H-pyrazol-4-yl)pyridin-3-yl)methyl)-2,3-dihydro-1-benzofuran-5-yl)carbonyl)amino)-L-threo-pentitol]
clearance (Rat PK test): 6.5 mL/min/kg
MRT (Rat PK test): 84 min
Tmax (Rat PK test): 72 min

COCCNC(=O)c1ccc(Cc2cc(C(=O)N[C@H]3CCOC[C@@H]3O)c(F)c3c2OCC3)cc1F [Example 13, 1,5-anhydro-2,3-dideoxy-3-(((4-fluoro-7-(3-fluoro-4-((2-methoxyethyl)carbamoyl)benzyl)-2,3-dihydro-1-benzofuran-5-yl)carbonyl)amino)-L-threo-pentitol]
clearance (Rat PK test): 13.7 mL/min/kg
MRT (Rat PK test): 72 min
Tmax (Rat PK test): 60 min
number of HAPCs in the intestinal tract (Male beagle dogs; oral 0.03 mg/kg): an increase in the number of HAPCs in the intestinal tract was observed

CCOCCNC(=O)c1ccc(Cc2cc(C(=O)N[C@H]3CCOC[C@@H]3O)c(F)c3c2OCC3)cc1F [Example 14, 1,5-anhydro-2,3-dideoxy-3-(((7-(4-((2-ethoxyethyl)carbamoyl)-3-fluorobenzyl)-4-fluoro-2,3-dihydro-1-benzofuran-5-yl)carbonyl)amino)-L-threo-pentitol]
clearance (Rat PK test): 22.9 mL/min/kg
MRT (Rat PK test): 36 min
Tmax (Rat PK test): 42 min

CNC(=O)c1ccc(Cc2cc(C(=O)N[C@H]3CCOC[C@@H]3O)c(OC)c3c2OCC3)cc1F [Example 31, 1,5-anhydro-2,3-dideoxy-3-(((7-(3-fluoro-4-(methylcarbamoyl)benzyl)-4-methoxy-2,3-dihydro-1-benzofuran-5-yl)carbonyl)amino)-L-threo-pentitol]
clearance (Rat PK test): 9.05 mL/min/kg
MRT (Rat PK test): 54 min
Tmax (Rat PK test): 42 min

COCCCNC(=O)c1ccc(Cc2cc(C(=O)N[C@H]3CCOC[C@@H]3O)c(OC)c3c2CCC3)cc1F [Example 60, 1,5-anhydro-2,3-dideoxy-3-(((7-(3-fluoro-4-((3-methoxypropyl)carbamoyl)benzyl)-4-methoxy-2,3-dihydro-1H-inden-5-yl)carbonyl)amino)-L-threo-pentitol]
clearance (Rat PK test): 18.6 mL/min/kg
MRT (Rat PK test): 36 min
Tmax (Rat PK test): 48 min
number of HAPCs in the intestinal tract (Male beagle dogs; oral 1 mg/kg): an increase in the number of HAPCs in the intestinal tract was observed
